Measured values published in ChEMBL document CHEMBL1201862, “PubChem BioAssay data set” (2004).
Active and inactive are the calls of the source.

Experiments:
[1] = molecular target: Ion channel NompC (Danio rerio, UniProt Q7T1G6); assay: Fluorescence counterscreen assay for TRPML3 agonists: dose response cell-based high-throughput screening assay to identify agonists of the transient receptor potential channel N1 (TRPN1). [Related pubchem assays: 1526, 1424, 1448 ]; format: functional
[2] = molecular target: T1, Mucolipin-3 (Homo sapiens, UniProt Q8TDD5); assay: Dose response cell-based high-throughput screening assay for agonists of the transient receptor potential channel ML3 (TRPML3). [Related pubchem assays: 1526, 1424, 1448 ]; format: functional
T1 sequence (Q8TDD5 whole entry): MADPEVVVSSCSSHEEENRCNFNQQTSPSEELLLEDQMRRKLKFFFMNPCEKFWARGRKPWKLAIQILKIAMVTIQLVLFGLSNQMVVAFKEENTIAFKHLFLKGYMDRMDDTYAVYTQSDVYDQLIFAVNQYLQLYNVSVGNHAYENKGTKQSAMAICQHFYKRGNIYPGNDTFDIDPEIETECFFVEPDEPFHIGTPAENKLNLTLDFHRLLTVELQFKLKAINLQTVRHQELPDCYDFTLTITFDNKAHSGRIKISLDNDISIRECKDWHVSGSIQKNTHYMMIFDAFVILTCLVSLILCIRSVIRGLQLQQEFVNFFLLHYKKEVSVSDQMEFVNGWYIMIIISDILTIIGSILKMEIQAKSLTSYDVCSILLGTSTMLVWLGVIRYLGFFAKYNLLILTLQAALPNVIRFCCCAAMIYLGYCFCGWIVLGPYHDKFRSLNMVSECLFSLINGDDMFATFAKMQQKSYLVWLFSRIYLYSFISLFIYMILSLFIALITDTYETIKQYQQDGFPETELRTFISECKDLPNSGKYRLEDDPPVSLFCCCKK

[3] = molecular target: T2, Bcl-2-related protein A1 (Mus musculus, UniProt Q07440); assay: Bfl-1 binding inhibitors, SAR follow-up, biochemical, fluorescence polarization (AID 1070)
T2 sequence (Q07440 whole entry): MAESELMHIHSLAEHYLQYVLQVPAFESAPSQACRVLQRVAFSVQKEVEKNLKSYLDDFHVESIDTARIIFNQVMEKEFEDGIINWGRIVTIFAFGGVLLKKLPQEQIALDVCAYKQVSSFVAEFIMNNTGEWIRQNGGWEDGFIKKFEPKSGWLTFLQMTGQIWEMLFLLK

[4] = molecular target: T2, Bcl-2-related protein A1; assay: small-molecule antagonists of Bfl-1/BH3 interaction – biochemical, TR-FRET, mouse Bfl-1, confirmation (AID 621);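 also: TR-FRET binding of GST-Bfl-1 to FITC-labelled Bid peptide via terbium antibody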
[5] = molecular target: Glyceraldehyde-3-phosphate dehydrogenase (Homo sapiens, UniProt P04406)
[6] = molecular target: G-protein coupled receptor 55 (Homo sapiens, UniProt Q9Y2T6); assay: inhibition of LPI-stimulated GPR55 beta-arrestin translocation – imaging, U2OS, beta-arrestin-GFP, LPI agonist, primary screen (AID 2013); format: functional;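 also: antagonist potency measured as reduced agonist-driven arrestin aggregation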
[7] = M. tuberculosis H37Rv growth inhibitors, H37Rv strain (AID 1626); format: functional
[8] = Luminescence Cell-Based Dose Response HTS to Identify Activators of Luciferase Translation or Activity in H4 […] Cells. [Related pubchem assays: 1829 (Project Summary), 1814 (Primary HTS)]; format: functional
[9] = Luminescence Cell-Based Dose Response to Identify Activators of 5'UTR Stem-Loop Driven Prion Protein mRNA Translation in H4-C Neuroglioblastoma Cells. [Related pubchem assays: 1829 (Project Summary), 1814 (Primary HTS)]; format: functional
[10] = molecular target: Cytochrome P450 2C9 (Homo sapiens, UniProt P11712)
[11] = Luminescence Cell-Based Dose Confirmation to Identify Activators of 5'UTR Stem-Loop Driven Alpha-Synuclein mRNA Translation in H4 Neuroglioblastoma Cells. [Related pubchem assays: 1829 (Project Summary), 1814 (Primary HTS)]; format: functional
[12] = Luminescence Cell-Based Dose Response to Identify Activators of Luciferase Translation or Activity in H4-C Neuroglioblastoma Cells. [Related pubchem assays: 1829 (Project Summary), 1814 (Primary HTS)]; format: functional
[13] = molecular target: T3, Neuropeptide Y receptor type 1 (Homo sapiens, UniProt P25929); format: functional;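 also: HEK293 cells with a CNG channel challenged with NPY then isoproterenol; potency as antagonist that reverses NPY suppression of cAMP signal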
T3 sequence (P25929 whole entry): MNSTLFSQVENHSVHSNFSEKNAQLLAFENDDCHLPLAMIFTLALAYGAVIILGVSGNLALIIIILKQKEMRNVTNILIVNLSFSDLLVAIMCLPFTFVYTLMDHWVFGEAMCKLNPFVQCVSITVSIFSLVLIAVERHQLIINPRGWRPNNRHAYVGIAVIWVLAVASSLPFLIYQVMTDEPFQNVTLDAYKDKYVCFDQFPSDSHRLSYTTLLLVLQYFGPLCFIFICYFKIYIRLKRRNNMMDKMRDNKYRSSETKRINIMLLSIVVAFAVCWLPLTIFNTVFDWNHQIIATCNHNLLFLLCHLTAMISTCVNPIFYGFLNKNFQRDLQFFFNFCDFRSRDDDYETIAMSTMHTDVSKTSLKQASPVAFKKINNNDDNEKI

[14] = molecular target: T4, Neuropeptide Y receptor type 2 (Homo sapiens, UniProt P49146); format: functional, cell-based;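 also: HEK293 cells expressing the receptor and a CNG channel; stimulus was NPY near EC95 followed by isoproterenol to raise cAMP; antagonist potency measured as restoring cAMP signal that NPY suppresses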
T4 sequence (P49146 whole entry): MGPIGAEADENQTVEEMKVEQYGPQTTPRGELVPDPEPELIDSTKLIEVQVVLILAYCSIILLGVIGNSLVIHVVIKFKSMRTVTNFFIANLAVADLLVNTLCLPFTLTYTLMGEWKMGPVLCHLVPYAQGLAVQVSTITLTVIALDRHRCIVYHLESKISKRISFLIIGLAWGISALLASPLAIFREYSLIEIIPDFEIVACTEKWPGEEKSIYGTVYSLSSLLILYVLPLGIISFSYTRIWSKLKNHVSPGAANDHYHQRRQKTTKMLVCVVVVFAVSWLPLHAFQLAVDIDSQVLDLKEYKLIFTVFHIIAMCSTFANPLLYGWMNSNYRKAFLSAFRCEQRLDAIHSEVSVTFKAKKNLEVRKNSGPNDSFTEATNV

[15] = molecular target: Large T antigen (Simian virus 40, UniProt P03070); format: functional, Betapolyomavirus macacae;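 also: Confirmatory-stage PubChem screen for compounds that inhibit SV40 T antigen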
[16] = molecular target: T5, Mannose-6-phosphate isomerase (Homo sapiens, UniProt P34949); assay: MPI enzyme activity inhibition – biochemical, fluorescence intensity, coupled assay, primary screen (AID 1209)
T5 sequence (P34949 whole entry): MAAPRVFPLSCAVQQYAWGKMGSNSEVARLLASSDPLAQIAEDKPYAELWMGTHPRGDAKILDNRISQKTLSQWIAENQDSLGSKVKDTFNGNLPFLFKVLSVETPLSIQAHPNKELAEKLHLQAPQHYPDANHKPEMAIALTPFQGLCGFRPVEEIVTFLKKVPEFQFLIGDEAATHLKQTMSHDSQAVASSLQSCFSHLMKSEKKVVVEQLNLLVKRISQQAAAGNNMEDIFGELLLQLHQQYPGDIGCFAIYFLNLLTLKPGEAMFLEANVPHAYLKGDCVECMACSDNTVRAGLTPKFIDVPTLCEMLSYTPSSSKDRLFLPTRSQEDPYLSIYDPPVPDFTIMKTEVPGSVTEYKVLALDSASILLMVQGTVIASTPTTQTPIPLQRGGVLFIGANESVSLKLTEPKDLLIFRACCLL

[17] = molecular target: T5, Mannose-6-phosphate isomerase; assay: MPI inhibition at elevated mannose 6-phosphate – biochemical, fluorescence intensity, high mannose 6-phosphate, primary screen (AID 1220)
[18] = tested on: Vero; assay: viability of Vero cells under compound – cytotoxicity control for flavivirus capping enzyme inhibitors (AID 588742); format: functional; details: Chlorocebus sabaeus
[19] = molecular target: T6, Protein RecA (Mycobacterium tuberculosis, UniProt P9WHJ3); assay: Fluorescence Cell-Free Homogeneous Dose Retest to Identify Inhibitors of RecA-Intein Splicing Activity. [Related pubchem assays (depositor defined):AID2097, AID2223, AID489010, AID492950]; format: functional
T6 sequence (P9WHJ3 whole entry): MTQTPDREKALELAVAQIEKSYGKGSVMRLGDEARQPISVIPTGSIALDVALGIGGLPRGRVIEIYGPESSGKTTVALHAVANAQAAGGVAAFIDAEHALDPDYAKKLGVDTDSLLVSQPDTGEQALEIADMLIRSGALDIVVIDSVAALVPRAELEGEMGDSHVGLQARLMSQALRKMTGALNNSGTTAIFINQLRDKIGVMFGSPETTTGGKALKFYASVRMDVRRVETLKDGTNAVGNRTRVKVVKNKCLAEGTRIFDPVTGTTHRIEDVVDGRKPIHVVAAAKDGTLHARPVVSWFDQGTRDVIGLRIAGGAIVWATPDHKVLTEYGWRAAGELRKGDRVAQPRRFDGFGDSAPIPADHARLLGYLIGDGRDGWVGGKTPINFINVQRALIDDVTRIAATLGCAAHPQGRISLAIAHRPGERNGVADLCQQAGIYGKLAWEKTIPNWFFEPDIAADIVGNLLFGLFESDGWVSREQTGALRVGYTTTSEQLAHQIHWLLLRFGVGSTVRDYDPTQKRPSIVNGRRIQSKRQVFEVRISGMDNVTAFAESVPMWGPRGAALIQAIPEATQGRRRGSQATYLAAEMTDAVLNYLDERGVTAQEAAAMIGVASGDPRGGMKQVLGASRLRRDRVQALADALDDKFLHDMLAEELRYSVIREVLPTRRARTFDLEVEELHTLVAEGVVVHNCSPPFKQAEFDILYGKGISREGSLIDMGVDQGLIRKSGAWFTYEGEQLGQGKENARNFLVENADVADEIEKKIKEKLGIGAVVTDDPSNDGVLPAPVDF

[20] = molecular target: T7, Polyadenylate-binding protein 1 (Homo sapiens, UniProt P11940); assay: MLLE binding blockers, Cy5 peptide tracer – biochemical, fluorescence polarization, Cy5-PAM2 peptide, secondary, miRNA deadenylation inhibitor project, dose response (AID 602260); format: functional; details: read-out: IC50_Mean
[21] = molecular target: T7, Polyadenylate-binding protein 1; assay: MLLE domain peptide-binding blockers, IC50 – biochemical, fluorescence polarization, FITC-PAM2 peptide, dose response (AID 602259); format: functional; details: read-out: IC50_Mean
[22] = molecular target: T8, Replicative DNA helicase DnaB (Mycobacterium tuberculosis, UniProt P9WMR3); assay: DnaB intein splicing inhibitors, dose response, biochemical, cell-free fluorescence (AID 449749); format: functional
T8 sequence (P9WMR3 whole entry): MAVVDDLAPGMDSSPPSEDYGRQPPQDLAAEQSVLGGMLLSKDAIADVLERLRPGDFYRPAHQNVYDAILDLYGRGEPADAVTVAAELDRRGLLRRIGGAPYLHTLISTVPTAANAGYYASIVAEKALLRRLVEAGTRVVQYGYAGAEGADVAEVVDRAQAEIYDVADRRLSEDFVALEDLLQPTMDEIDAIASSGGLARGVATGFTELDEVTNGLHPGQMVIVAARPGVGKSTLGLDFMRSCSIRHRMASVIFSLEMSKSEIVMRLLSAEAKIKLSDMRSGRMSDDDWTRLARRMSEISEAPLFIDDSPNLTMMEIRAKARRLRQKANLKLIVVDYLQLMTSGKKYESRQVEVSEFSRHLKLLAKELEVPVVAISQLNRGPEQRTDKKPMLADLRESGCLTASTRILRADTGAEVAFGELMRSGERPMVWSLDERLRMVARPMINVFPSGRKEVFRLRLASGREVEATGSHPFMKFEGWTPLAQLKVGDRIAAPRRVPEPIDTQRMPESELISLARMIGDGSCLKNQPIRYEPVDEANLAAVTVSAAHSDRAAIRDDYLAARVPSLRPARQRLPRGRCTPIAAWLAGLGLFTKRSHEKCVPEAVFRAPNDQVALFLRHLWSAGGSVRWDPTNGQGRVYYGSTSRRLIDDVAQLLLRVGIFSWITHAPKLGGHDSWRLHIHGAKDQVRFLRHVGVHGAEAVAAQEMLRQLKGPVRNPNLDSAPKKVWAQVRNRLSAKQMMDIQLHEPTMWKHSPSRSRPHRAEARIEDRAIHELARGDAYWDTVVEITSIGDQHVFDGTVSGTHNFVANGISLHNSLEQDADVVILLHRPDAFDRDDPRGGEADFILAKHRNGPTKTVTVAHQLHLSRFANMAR

T7 sequence (P11940 whole entry, the tested form may be a part): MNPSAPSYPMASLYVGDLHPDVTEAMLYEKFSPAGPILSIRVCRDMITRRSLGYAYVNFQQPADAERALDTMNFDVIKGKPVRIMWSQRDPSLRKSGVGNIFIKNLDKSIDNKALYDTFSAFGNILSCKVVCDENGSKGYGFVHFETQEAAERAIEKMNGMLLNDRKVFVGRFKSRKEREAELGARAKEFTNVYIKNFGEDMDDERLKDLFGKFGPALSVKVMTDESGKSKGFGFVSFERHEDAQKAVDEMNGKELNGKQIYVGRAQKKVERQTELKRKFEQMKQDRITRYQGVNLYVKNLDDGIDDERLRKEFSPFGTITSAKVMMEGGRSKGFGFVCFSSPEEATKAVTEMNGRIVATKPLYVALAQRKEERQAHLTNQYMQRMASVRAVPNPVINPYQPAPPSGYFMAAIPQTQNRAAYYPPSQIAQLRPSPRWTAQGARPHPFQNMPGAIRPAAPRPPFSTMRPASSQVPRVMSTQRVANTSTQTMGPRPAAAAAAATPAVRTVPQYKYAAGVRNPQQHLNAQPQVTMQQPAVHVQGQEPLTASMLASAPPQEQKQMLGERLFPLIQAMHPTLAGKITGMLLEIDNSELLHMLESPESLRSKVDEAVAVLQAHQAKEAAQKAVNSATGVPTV
Chain of Large T antigen (P03070 whole entry): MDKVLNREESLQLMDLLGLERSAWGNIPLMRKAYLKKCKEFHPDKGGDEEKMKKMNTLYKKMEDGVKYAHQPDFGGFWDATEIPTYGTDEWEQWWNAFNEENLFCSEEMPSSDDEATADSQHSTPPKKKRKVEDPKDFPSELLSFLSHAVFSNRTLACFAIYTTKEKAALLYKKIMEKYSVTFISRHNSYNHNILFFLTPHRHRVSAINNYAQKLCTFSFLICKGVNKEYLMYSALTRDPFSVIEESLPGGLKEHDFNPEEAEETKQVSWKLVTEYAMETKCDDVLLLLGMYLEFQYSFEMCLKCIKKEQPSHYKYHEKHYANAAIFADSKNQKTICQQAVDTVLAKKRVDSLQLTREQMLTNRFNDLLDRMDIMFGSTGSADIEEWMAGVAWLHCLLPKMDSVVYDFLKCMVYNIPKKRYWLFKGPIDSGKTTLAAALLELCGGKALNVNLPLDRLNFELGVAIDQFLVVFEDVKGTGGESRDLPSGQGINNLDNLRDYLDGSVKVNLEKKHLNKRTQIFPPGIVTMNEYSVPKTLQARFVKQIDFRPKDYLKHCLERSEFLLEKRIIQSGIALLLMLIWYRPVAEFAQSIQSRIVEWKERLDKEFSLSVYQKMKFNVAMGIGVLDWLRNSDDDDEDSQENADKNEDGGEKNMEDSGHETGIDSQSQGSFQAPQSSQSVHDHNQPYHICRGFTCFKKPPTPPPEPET
Chain of Ion channel NompC (Q7T1G6 whole entry): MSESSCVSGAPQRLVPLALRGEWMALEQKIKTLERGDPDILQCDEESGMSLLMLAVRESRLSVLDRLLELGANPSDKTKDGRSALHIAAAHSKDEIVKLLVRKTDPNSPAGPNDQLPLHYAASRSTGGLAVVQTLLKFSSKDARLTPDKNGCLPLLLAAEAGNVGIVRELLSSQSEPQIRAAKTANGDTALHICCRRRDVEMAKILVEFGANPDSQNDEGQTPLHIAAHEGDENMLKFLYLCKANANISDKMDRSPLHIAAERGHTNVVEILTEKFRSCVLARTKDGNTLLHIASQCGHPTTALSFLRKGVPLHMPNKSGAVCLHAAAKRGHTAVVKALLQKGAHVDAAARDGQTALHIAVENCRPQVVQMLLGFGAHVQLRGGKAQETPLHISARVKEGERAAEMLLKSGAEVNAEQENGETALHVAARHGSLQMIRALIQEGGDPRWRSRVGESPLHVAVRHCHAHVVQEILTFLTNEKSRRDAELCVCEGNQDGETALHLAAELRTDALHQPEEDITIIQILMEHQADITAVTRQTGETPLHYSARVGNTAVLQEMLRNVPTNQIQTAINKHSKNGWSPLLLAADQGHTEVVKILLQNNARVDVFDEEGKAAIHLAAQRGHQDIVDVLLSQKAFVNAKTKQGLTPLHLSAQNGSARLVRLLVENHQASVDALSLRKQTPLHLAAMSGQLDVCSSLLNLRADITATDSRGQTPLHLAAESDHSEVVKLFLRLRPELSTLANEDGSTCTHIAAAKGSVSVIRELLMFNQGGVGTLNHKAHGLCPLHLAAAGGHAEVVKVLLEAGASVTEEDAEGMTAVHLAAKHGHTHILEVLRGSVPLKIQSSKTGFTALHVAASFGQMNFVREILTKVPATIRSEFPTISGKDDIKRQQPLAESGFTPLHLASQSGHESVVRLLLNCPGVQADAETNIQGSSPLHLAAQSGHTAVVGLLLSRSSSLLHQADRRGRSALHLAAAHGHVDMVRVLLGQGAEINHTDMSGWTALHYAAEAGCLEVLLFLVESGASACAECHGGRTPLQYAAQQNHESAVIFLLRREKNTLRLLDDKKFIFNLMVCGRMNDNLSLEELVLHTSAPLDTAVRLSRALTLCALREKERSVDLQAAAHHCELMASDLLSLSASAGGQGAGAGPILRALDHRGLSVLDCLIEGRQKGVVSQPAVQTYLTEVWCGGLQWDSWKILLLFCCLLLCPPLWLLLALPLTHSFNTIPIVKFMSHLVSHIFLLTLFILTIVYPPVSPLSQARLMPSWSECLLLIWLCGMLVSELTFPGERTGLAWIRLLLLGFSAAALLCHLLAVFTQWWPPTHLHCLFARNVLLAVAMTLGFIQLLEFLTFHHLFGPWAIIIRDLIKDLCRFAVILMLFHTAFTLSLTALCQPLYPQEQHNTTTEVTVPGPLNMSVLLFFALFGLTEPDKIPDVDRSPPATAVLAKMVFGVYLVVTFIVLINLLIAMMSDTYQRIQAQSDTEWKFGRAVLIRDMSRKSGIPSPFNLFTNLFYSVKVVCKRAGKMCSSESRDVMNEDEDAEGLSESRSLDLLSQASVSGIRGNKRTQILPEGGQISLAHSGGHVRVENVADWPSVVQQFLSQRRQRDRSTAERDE
Chain of Cytochrome P450 2C9 (P11712 whole entry): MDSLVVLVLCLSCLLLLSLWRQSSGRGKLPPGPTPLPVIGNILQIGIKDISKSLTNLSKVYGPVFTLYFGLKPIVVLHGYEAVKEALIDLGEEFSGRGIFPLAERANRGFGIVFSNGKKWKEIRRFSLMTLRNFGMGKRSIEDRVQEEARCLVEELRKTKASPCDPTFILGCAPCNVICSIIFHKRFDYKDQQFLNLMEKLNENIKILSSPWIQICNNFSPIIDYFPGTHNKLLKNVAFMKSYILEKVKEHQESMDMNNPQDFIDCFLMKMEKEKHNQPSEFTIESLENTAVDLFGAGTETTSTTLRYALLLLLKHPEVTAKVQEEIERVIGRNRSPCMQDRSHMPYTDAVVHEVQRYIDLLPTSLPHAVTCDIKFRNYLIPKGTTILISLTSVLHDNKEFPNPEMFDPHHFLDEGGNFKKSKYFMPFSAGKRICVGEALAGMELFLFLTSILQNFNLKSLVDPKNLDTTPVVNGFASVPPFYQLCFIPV
Chain of Glyceraldehyde-3-phosphate dehydrogenase (P04406 whole entry): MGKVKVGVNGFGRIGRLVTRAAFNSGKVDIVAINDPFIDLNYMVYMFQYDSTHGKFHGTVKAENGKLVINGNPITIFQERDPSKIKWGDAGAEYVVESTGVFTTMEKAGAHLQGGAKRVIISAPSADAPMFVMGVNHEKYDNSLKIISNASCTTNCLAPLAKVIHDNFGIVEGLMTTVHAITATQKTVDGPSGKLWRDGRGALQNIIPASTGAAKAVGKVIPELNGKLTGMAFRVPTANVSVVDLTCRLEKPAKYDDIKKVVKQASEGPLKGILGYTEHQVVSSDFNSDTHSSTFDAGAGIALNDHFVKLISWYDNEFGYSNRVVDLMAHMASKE
Chain of G-protein coupled receptor 55 (Q9Y2T6 whole entry): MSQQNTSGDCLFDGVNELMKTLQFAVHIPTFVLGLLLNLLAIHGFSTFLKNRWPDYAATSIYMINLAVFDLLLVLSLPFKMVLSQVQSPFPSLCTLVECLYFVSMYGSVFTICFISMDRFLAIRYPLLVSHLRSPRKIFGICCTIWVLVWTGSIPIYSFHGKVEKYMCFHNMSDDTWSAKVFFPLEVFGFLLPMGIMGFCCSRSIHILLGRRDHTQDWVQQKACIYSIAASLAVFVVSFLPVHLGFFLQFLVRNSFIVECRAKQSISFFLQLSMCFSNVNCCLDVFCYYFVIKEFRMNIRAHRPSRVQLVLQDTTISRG

COc1ccccc1C1CN=NC12CCCc1ccccc1C2=O (configuration not stated)
EC50 [1]: > 29.9 µM (not active) | EC50 [2]: 1.83 µM (active)

CC1NC(C)C(C)N(C2=C(Cl)C(=O)N(c3ccc(Cl)c(Cl)c3)C2=O)C1C (configuration not stated)
IC50 [3]: > 100 µM (not active) | IC50 [4]: 47 µM (active) | IC50 [5]: > 100 µM (not active)

Clc1nc2ccccc2cc1-c1nnn(-c2ccccc2)n1
IC50 [3]: > 100 µM (not active) | IC50 [4]: > 100 µM (not active)

O=C1N=C(N2CCOCC2)S/C1=C/c1ccc(-c2ccc(F)cc2)o1
IC50 [6]: 2.93 µM (active) | IC50 [7]: > 100 µM (active)

Cc1nc2c3cnn(-c4ccc(C)c(C)c4)c3ncn2n1
EC50 [8]: < 0.1 µM (active) | EC50 [9]: 0.298 µM (active) | AC50 [10]: 20 µM (inconclusive) | EC50 [11]: 0.424 µM (active) | EC50 [12]: 0.341 µM (active)

c1ccc(COc2ccc(OCCCCN3CCCCC3)cc2)cc1
IC50 [13]: 9.46 µM (active) | IC50 [14]: > 35 µM (not active)

Cc1nc2ccc(F)cc2cc1C(=O)Nc1ccc(Cl)c(Cl)c1
IC50 [13]: 8.84 µM (active) | IC50 [14]: 8.88 µM (active)

Cc1nnc2n(c1=O)N=C(c1ccc(Cl)cc1)CS2
EC50 [8]: < 0.1 µM (inconclusive) | EC50 [9]: 0.355 µM (active) | EC50 [11]: 0.244 µM (active) | EC50 [12]: 0.249 µM (active)

COc1ccc2c(c1)-c1nc(/N=C/c3ccc(O)c(OC)c3)sc1CC2
IC50 [15]: 15.5 µM (active) | IC50 [16]: > 50 µM (not active) | IC50 [17]: > 50 µM (not active)

CCOC(=O)c1c(C)oc2c1c(/C=N/CCO)c(O)c1ccccc12
CC50 [18]: 32.9 µM (active) | EC50 [19]: 0.618 µM (active) | IC50 [16]: 5.36 µM (active) | IC50 [17]: 4.48 µM (active) | IC50 [20]: > 66 µM (inactive) | IC50 [21]: > 66 µM (inactive) | AC50 [22]: > 380 µM (inactive)
